According to the NIST ThermoML archive (doi:10.1016/j.tca.2015.03.026):
Values joined by “and” are separate entries in the source; they are usually repeats but may differ in a detail not shown here. Identical values can stand only once.

Experiments:
[1] = for Normal melting temperature: DTA
[2] = Molar enthalpy of transition or fusion; settings: Crystal; DSC

COc1cccc(C(=O)O)c1 [3-methoxybenzoic acid]
Settings	Normal melting temperature [°C]
[1], Crystal	109.0

Settings	Molar enthalpy of transition or fusion [kcal/mol]
[2]	5.23

COc1ccccc1C(=O)O [2-methoxybenzoic acid]
[1]
Settings	vapor or sublimation pressure
318.25 K, Crystal, Closed cell (Static) method	6.16e-05 kPa
320.73 K, Crystal, Closed cell (Static) method	8.28e-05 kPa
323.21 K, Crystal, Closed cell (Static) method	0.0001133 kPa
325.68 K, Crystal, Closed cell (Static) method	0.0001504 kPa
328.17 K, Crystal, Closed cell (Static) method	0.0002043 kPa
330.65 K, Crystal, Closed cell (Static) method	0.0002676 kPa
333.12 K, Crystal, Closed cell (Static) method	0.0003567 kPa
335.61 K, Crystal, Closed cell (Static) method	0.0004802 kPa
335.62 K, Crystal, Closed cell (Static) method	0.0004752 kPa
338.08 K, Crystal, Closed cell (Static) method	0.0006182 kPa
340.58 K, Crystal, Closed cell (Static) method	0.000822 kPa and 0.0008262 kPa
343.05 K, Crystal, Closed cell (Static) method	0.001076 kPa
344.3 K, Crystal, Transpiration method	0.00121 kPa
345.3 K, Crystal, Transpiration method	0.00133 kPa
345.4 K, Crystal, Transpiration method	0.00133 kPa
345.54 K, Crystal, Closed cell (Static) method	0.001402 kPa
346.4 K, Crystal, Transpiration method	0.0015 kPa
347.2 K, Crystal, Transpiration method	0.00163 kPa
347.4 K, Crystal, Transpiration method	0.00164 kPa
348.02 K, Crystal, Closed cell (Static) method	0.001813 kPa
348.34 K, Crystal, Closed cell (Static) method	0.001883 kPa
348.4 K, Crystal, Transpiration method	0.00179 kPa
349.2 K, Crystal, Transpiration method	0.00196 kPa
350.4 K, Crystal, Transpiration method	0.0023 kPa
350.5 K, Crystal, Closed cell (Static) method	0.002351 kPa
350.82 K, Crystal, Closed cell (Static) method	0.002438 kPa
352.4 K, Crystal, Transpiration method	0.00275 kPa
353.3 K, Crystal, Closed cell (Static) method	0.003074 kPa
353.5 K, Crystal, Transpiration method	0.00317 kPa
354.5 K, Crystal, Transpiration method	0.00349 kPa
355.5 K, Crystal, Transpiration method	0.00377 kPa
355.78 K, Crystal, Closed cell (Static) method	0.003984 kPa
356.5 K, Crystal, Transpiration method	0.00408 kPa
357.6 K, Crystal, Transpiration method	0.00472 kPa
358.26 K, Crystal, Closed cell (Static) method	0.005029 kPa
358.4 K, Crystal, Transpiration method	0.00508 kPa
359.5 K, Crystal, Transpiration method	0.00566 kPa
360.5 K, Crystal, Transpiration method	0.00637 kPa
360.75 K, Crystal, Closed cell (Static) method	0.006481 kPa
361.6 K, Crystal, Transpiration method	0.00677 kPa
362.5 K, Crystal, Transpiration method	0.00755 kPa
363.23 K, Crystal, Closed cell (Static) method	0.008104 kPa
363.6 K, Crystal, Transpiration method	0.00827 kPa
364.5 K, Crystal, Transpiration method	0.00908 kPa
365.71 K, Crystal, Closed cell (Static) method	0.01039 kPa
366.4 K, Crystal, Transpiration method	0.0107 kPa
366.6 K, Crystal, Transpiration method	0.01098 kPa
368.19 K, Crystal, Closed cell (Static) method	0.01325 kPa
368.6 K, Crystal, Transpiration method	0.01323 kPa
369.6 K, Crystal, Transpiration method	0.01454 kPa
378.32 K, Liquid, Closed cell (Static) method	0.0318 kPa
378.33 K, Liquid, Closed cell (Static) method	0.0318 kPa
380.81 K, Liquid, Closed cell (Static) method	0.0371 kPa
380.82 K, Liquid, Closed cell (Static) method	0.0371 kPa
383.29 K, Liquid, Closed cell (Static) method	0.0435 kPa
383.32 K, Liquid, Closed cell (Static) method	0.0435 kPa
385.78 K, Liquid, Closed cell (Static) method	0.0507 kPa and 0.0504 kPa
388.26 K, Liquid, Closed cell (Static) method	0.0588 kPa
388.29 K, Liquid, Closed cell (Static) method	0.0585 kPa
390.97 K, Liquid, Closed cell (Static) method	0.0691 kPa
390.98 K, Liquid, Closed cell (Static) method	0.0695 kPa
393.47 K, Liquid, Closed cell (Static) method	0.0797 kPa and 0.0801 kPa
395.94 K, Liquid, Closed cell (Static) method	0.0929 kPa
395.95 K, Liquid, Closed cell (Static) method	0.0933 kPa
398.44 K, Liquid, Closed cell (Static) method	0.1072 kPa and 0.1071 kPa
400.91 K, Liquid, Closed cell (Static) method	0.1239 kPa
400.94 K, Liquid, Closed cell (Static) method	0.1244 kPa
403.41 K, Liquid, Closed cell (Static) method	0.1413 kPa
403.44 K, Liquid, Closed cell (Static) method	0.1428 kPa
405.88 K, Liquid, Closed cell (Static) method	0.1621 kPa
405.89 K, Liquid, Closed cell (Static) method	0.1621 kPa
408.38 K, Liquid, Closed cell (Static) method	0.1849 kPa
408.39 K, Liquid, Closed cell (Static) method	0.1865 kPa
410.85 K, Liquid, Closed cell (Static) method	0.2113 kPa
410.87 K, Liquid, Closed cell (Static) method	0.2131 kPa
413.34 K, Liquid, Closed cell (Static) method	0.2389 kPa
413.38 K, Liquid, Closed cell (Static) method	0.242 kPa

Settings	Normal melting temperature [°C]
[1], Crystal	101.6

Settings	Molar enthalpy of transition or fusion [kcal/mol]
[2]	5.71

Cc1ccc(C(=O)O)cc1 [4-methylbenzoic acid]
[1], Crystal, Transpiration method
Settings	vapor or sublimation pressure [kPa]
340.4 K	0.00123
343.3 K	0.00162
348.5 K	0.00271
356.7 K	0.00558
359.3 K	0.00715
363.9 K	0.01097
368.5 K	0.01623
373.7 K	0.02473
374.4 K	0.02687
378.8 K	0.03813
380.1 K	0.04273
384.4 K	0.05807
389.2 K	0.08453
394 K	0.1213
398.8 K	0.1748

Settings	Normal melting temperature [°C]
[1], Crystal	180.2

Settings	Molar enthalpy of transition or fusion [kcal/mol]
[2]	5.33

O=C(O)c1ccccc1 [benzoic acid]
[1], Crystal
Settings	vapor or sublimation pressure [kPa]
297.67 K, Closed cell (Static) method	0.000108
299.96 K, Closed cell (Static) method	0.000142
300.03 K, Closed cell (Static) method	0.000143
302.51 K, Closed cell (Static) method	0.000193
304.75 K, Closed cell (Static) method	0.00025
307.27 K, Closed cell (Static) method	0.000335
309.63 K, Closed cell (Static) method	0.000436
312.08 K, Closed cell (Static) method	0.000573
314.4 K, Closed cell (Static) method	0.000738
314.59 K, Closed cell (Static) method	0.000754
316.3 K, Transpiration method	0.00095
316.91 K, Closed cell (Static) method	0.000969
319.48 K, Closed cell (Static) method	0.00127
320.4 K, Transpiration method	0.00147
321.91 K, Closed cell (Static) method	0.00164
324 K, Transpiration method	0.00214
324.39 K, Closed cell (Static) method	0.00212
326.76 K, Closed cell (Static) method	0.00268
327.4 K, Transpiration method	0.00302
329.2 K, Closed cell (Static) method	0.00343
331.62 K, Closed cell (Static) method	0.00436
332.4 K, Transpiration method	0.00495
334.07 K, Closed cell (Static) method	0.00554
336.46 K, Closed cell (Static) method	0.00693
337.4 K, Transpiration method	0.00809
338.98 K, Closed cell (Static) method	0.00873
342.3 K, Transpiration method	0.01272
347.3 K, Transpiration method	0.01965
352.4 K, Transpiration method	0.03114
357.4 K, Transpiration method	0.04619
362.5 K, Transpiration method	0.06987
367.5 K, Transpiration method	0.1076

COc1ccc(C(=O)O)cc1 [4-methoxybenzoic acid]
[1], Crystal, Transpiration method
Settings	vapor or sublimation pressure [kPa]
363.3 K	0.00117
368.2 K	0.0019
374.9 K	0.00353
383.2 K	0.00753
384.5 K	0.0085
388.3 K	0.01217
391.1 K	0.01556
394.2 K	0.01971
397.2 K	0.0267
400.3 K	0.03247
403.4 K	0.04422
406.2 K	0.05311

Cc1ccccc1C(=O)O [2-methylbenzoic acid]
[1], Crystal, Transpiration method
Settings	vapor or sublimation pressure [kPa]
331.2 K	0.0028
335.2 K	0.00421
341.2 K	0.00767
345.2 K	0.0112
348.2 K	0.01564
351.2 K	0.01962
355.4 K	0.02895
358.6 K	0.0389
358.7 K	0.03932
361.2 K	0.05138
364.2 K	0.06664
367.4 K	0.08391
373 K	0.1339
